This assay deals with C. elegans. Description: Fat-reducing effect on C. elegans (Nile red lipid staining, fluorescence). In kind it is in vivo. The following applies: for Fat Reduction (%) vs. Control: vs NG medium; for effectiveness in reducing the lipid level relative to Orlistat as reference: specific concentrations, summary statement. As to the method:
Plates with a diameter of 100×15 mm have been filled with NGM (Nematode Growth Medium, as standard, hereafter NG medium (Fisher Scientific). Nile red (Sigma, St. Louis, MO, USA) was added to the solid surface of the NGM plates seeded at a final concentration of 0.05 μg/mL
For each of the experiments 2 NG medium plates were used, which had been supplemented with 2′-fucosyllactose in different amounts each, i.e. […] As negative control two plates with NG medium were used. As positive control two NG medium plates with Orlistat® were used.
60 synchronized worms at young adult stage were added to each plate with Escherichia coli strain OP50 as a food source and cultured under aerobic conditions at 20° C.
All worms were subjected to a lipid staining method, following the protocol previously described (Martorell et al., 2016).
All nematodes from each plate were transferred to M9 buffer and the fluorescence was measured using a FP-8300 system (JASCO Analytical Instrument, Easton, MD, USA). Fat deposition in worms was determined by one-way ANOVA test, using a Tukey's multiple comparison post-test.
Results are given as the mean±standard deviation. The statistical analyses were performed with GraphPad Prism 9 software. Statistical significance is indicated at 5%. […]

Where “and” joins values, the source holds several entries; their conditions need not be identical. Equal values may be shown once.

For the compound 2′-fucosyllactose [2′-FL], the “effectiveness in reducing the lipid level relative to Orlistat as reference” value is 70-90%. Moreover, the “Fat Reduction (%) vs. Control” value (0.01 mg/L in NG medium) is −2.38%. The “Fat Reduction (%) vs. Control” value (0.1 mg/L in NG medium) amounted to 11.37%. Also, the “Fat Reduction (%) vs. Control” value (1 mg/L in NG medium) is 23.61%. Further, the “fat reduction compared to negative control conditions (NG medium)” value (shortened to “fat reduction … (NG medium)”) (1 mg/mL) is reported as 23.6%. Also, the “effectiveness relative to the positive control orlistat” value (1 mg/ml) is reported as “about 78%”. Moreover, the “Fat Reduction (%) vs. Control” value (10 mg/L in NG medium) was determined as 25.35%. Also, where the note is “10 mg/mL”, the “fat reduction … (NG medium)” value amounted to 25.3%. For the same compound, the “effectiveness relative to the positive control orlistat” value (10 mg/ml) is ~83%. In addition, the “Fat Reduction (%) vs. Control” value (30 mg/L in NG medium) came out at 5.28%. The “effect on fat content in nematodes” value (the lower and higher doses) was “no functional effect”.

With `CCCCCCCCCCC[C@@H](C[C@@H]1OC(=O)[C@H]1CCCCCC)OC(=O)[C@H](CC(C)C)NC=O` [Orlistat, (25)-2-Formylamino-4-methylpentansäure-(1S)-1-{[(35,4S)-3-hexyl-2-oxo-4-oxetanyl]methyl}dodecylester, reference compound], the “Fat Reduction (%) vs. Control” value reads like this: (6 μg/mL in NG medium, positive control) 31.14% and 30.40%; (6 μg/mL in NG medium, positive control, listed as Orlistate) 31.14%; (6 μg/mL in NG medium, positive control, listed as orlistat) 30.4%.

As to `CC(=O)N[C@H]1[C@H](O[C@H]2[C@@H](O)[C@@H](CO)O[C@@H](O[C@H]3[C@H](O)[C@@H](O)C(O)O[C@@H]3CO)[C@@H]2O)O[C@H](CO)[C@@H](O[C@@H]2O[C@H](CO)[C@H](O)[C@H](O)[C@H]2O)[C@@H]1O` (mixture of isomers) [LNnT, Lacto-N-neotetraose], the “effectiveness in reducing the lipid level relative to Orlistat as reference” value is on record as 40-60%. The “Fat Reduction (%) vs. Control” value (0.01 mg/L in NG medium) is −5.01%. Further, the “Fat Reduction (%) vs. Control” value (0.1 mg/L in NG medium) is −0.08%. Also, the “Fat Reduction (%) vs. Control” value (1 mg/L in NG medium) was 3.08%. In addition, the “Fat Reduction (%) vs. Control” value (10 mg/L in NG medium) was determined as 14.05%. Moreover, under “10 mg/mL”, the “fat reduction … (NG medium)” value is 14.05%. In addition, the “effectiveness relative to the positive control orlistat” value (10 mg/ml) is given as “about 45%”. Where the note is “30 mg/L in NG medium”, the “Fat Reduction (%) vs. Control” value is listed as −2.39%.

For the origin of these results see patent US20250127803A1, “2'-FUCOSYLLACTOSE AND LACTO-N-NEOTETRAOSE FOR PREVENTING AND TREATING OVERWEIGHT” (HEALTH AND HAPPINESS (H&H) HONG KONG LTD, priority 2022, published 2025).
